Results taken from patent US7589104B2, “Tricyclic-bridged piperidinyline derivatives as §-opioid modulators” (Janssen Pharmaceutica NV, priority 2004, dated 2009).
Read-outs that look alike come from different tables or passages of the source.

How the values were obtained:
delta opioid receptor [1] = biological target: T1, delta opioid receptor (Rattus norvegicus, UniProt P33533); test: Rat Brain Delta Opioid Receptor Binding Assay
T1 construct: from tissue; host or cells: forebrain of male Wistar rats (Charles River)

mu opioid receptor = biological target: T2, mu opioid receptor (Rattus norvegicus, UniProt P33535); test: Rat Brain Mu Opioid Receptor Binding Assay
T2 construct: Following incubation with the mu selective peptide ligand, ˜0.8 nM [^3H]DAMGO; from tissue; host or cells: forebrain of male Wistar rats (Charles River)

delta opioid receptor [2] = biological target: T3, delta opioid receptor (Mus musculus, UniProt P32300); test: [35S]GTPγS Binding Assay in NG108-15 Cell Membranes (Delta Opioid); type: biochemical; conditions: for delta GTPgS Rel Eff: relative efficacy
T3 construct: NG108-15 cell membranes were purchased from Applied Cell Sciences (Rockville, Md.); host or cells: NG108-15 cell membranes (purchased)
Method: Methods: NG108-15 cell membranes were purchased from Applied Cell Sciences (Rockville, Md.). 8 mg/mL of membrane protein suspended in 10 mM TRIS-HCl pH 7.2, 2 mM EDTA, 10% sucrose. Membranes were maintained at 4-8° C. A 1 mL volume of membranes was added into 10 mL cold binding assay buffer. The assay buffer contained 50 mM Tris, pH 7.6, 5 mM MgCl2, 100 mM NaCl, 1 mM DTT and 1 mM EGTA. The membrane suspension was homogenized twice with a Polytron, and centrifuged at 3000 rpm for 10 min. The supernatant was then centrifuged at 18,000 rpm for 20 min. Ten mL assay buffer was added into the pellet containing tube. The pellet and buffer were mixed with a Polytron.
Incubation procedure: The pellet membranes (75 μg/mL) were preincubated with SPA (10 mg/mL) at 25° C. for 45 min in the assay buffer. […] GTPγS in the same Tris buffer containing 100 μM GDP in total volume of 200 μL. Increasing concentrations of receptor agonists were used to stimulate [35S]- GTPγS binding. The basal binding was tested in the absence of agonists and non-specific binding was tested in the presence of 10 μM unlabeled GTPγS. The data were analyzed on a Packard Top Count.
% of Basal=(stimulated−non specific)*100/(basal−non specific). EC50 values were calculated using GraphPad Prism.

T1 sequence (P33533 whole entry): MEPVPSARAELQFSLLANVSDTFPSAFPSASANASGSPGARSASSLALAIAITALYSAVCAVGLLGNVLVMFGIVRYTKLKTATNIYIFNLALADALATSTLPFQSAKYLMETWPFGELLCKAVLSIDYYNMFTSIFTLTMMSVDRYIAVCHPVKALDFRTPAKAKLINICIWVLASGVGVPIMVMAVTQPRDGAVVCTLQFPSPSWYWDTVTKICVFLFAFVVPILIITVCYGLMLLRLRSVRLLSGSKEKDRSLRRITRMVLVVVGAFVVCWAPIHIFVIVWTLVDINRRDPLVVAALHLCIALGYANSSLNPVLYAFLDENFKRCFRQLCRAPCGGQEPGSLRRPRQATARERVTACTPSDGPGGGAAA
T2 sequence (P33535 whole entry): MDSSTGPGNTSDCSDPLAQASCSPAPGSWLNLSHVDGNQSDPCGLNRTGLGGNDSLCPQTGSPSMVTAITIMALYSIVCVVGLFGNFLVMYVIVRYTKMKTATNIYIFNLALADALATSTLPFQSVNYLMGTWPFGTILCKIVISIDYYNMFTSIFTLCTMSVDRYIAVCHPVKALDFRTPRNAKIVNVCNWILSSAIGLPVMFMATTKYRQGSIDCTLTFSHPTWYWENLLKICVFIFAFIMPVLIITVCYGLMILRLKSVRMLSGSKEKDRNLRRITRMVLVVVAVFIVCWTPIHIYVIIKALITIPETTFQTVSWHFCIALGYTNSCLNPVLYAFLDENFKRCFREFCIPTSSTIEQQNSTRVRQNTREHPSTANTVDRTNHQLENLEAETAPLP
T3 sequence (P32300 whole entry): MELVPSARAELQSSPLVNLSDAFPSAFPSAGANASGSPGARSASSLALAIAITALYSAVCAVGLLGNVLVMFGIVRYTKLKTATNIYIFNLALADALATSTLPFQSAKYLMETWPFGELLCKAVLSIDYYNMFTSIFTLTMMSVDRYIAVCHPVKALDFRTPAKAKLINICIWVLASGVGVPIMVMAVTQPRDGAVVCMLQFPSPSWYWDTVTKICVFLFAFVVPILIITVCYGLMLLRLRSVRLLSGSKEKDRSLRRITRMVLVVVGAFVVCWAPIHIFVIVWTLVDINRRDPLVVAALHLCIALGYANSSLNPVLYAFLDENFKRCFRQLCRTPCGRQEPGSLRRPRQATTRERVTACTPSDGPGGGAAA

Q: Which Ki (delta opioid receptor [1]) does the source give for CCN(CC)C(=O)c1ccc2c(c1)Oc1c(O)cccc1C2C1CC2CCC(C1)N2Cc1ncc[nH]1 (stereo not drawn) [Compound 10c, 5-Hydroxy-9-[8-(1H-imidazol-2-ylmethyl)-8-aza-bicyclo[3.2.1]oct-3-yl]-9H-xanthene-3-carboxylic acid diethylamide] here?
A: 0.32 nM

Q: And the Ki (mu opioid receptor)?
A: 70 nM

Q: What about the EC50 (delta opioid receptor [2]) of the same molecule?
A: 6.4 nM

Q: And the “delta GTPgS Rel Eff” value (delta opioid receptor [2]; NG108-15 cell membranes)?
A: 0.94

Q: For CCN(CC)C(=O)c1ccc2c(c1)Oc1ccccc1C2C1CC2CCC(C1)N2Cc1ccccc1 (stereo not drawn) [Compound 11a, 9-(8-Benzyl-8-aza-bicyclo[3.2.1]oct-3-yl)-9H-xanthene-3-carboxylic acid diethylamide], which Ki (delta opioid receptor [1]) is on record?
A: 19.9 nM

Q: And the Ki (mu opioid receptor)?
A: 1120 nM

Q: And the EC50 (delta opioid receptor [2])?
A: 118 nM

Q: And the “delta GTPgS Rel Eff” value (delta opioid receptor [2]; NG108-15 cell membranes)?
A: 0.78

Q: CCN(CC)C(=O)c1ccc2c(c1)Oc1ccccc1C2C1CC2CCC(C1)N2Cc1cccs1 (stereo not drawn) [Compound 14a, 9-(8-Thiophen-2-ylmethyl-8-aza-bicyclo[3.2.1]oct-3-yl)-9H-xanthene-3-carboxylic acid diethylamide] was tested. Which Ki (delta opioid receptor [1]) did it give?
A: 18.7 nM

Q: What about the Ki (mu opioid receptor) of the same molecule?
A: 1650 nM

Q: And the EC50 (delta opioid receptor [2])?
A: 96.9 nM

Q: And the “delta GTPgS Rel Eff” value (delta opioid receptor [2]; NG108-15 cell membranes)?
A: 0.65

Q: For CCN(CC)C(=O)c1ccc2c(c1)Oc1ccccc1C2C1CC2CCC(C1)N2Cc1ccccn1 (stereo not drawn) [Compound 15a, 9-(8-Pyridin-2-ylmethyl-8-aza-bicyclo[3.2.1]oct-3-yl)-9H-xanthene-3-carboxylic acid diethylamide], which Ki (delta opioid receptor [1]) is on record?
A: 11.1 nM

Q: And the Ki (mu opioid receptor; rat forebrain membranes, [3H]DAMGO, read-out: mu (Ki))?
A: 1410 nM

Q: What about the EC50 (delta opioid receptor [2]; NG108-15 cell membranes, stimulation of [35S]GTPγS binding, read-out: delta GTPgS EC50) of the same molecule?
A: 155 nM
